Tests used:
CD16a-158F FcR = biological target: T1, CD16a-158F FcR (Homo sapiens, UniProt P08637); experiment: Jurkat-CD16a-158F-luciferase (JKT-CD16a) reporter bioassay; format: cell-based
T1 construct: host or cells: Jurkat (JKT-CD16a luciferase reporter line)

CD16a FcR [1] = experiment: Cytokine ELISA on culture media of JKT-CD16a and parental Jurkat cells; format: cell-based, human; conditions: 10 μM, 18 hours, ELISA of supernatant
[2] = test system: SKBR3, OE19 or OV-CD20 target cells; experiment: ADCC by human PBMC and NK effector cells against tumor target cells; format: cell-based; conditions: 25 or 50 μM plus 2.5 μg/mL trastuzumab or rituximab, 24 hours; vs antibody alone (vehicle)
Protocol: (§1) Briefly, 5,000 human breast carcinoma (SKBR3 or OE19) or OV-CD20 target cells were plated in black 96-well microplates in R7.5 media for 48 hours. Wells were washed and 50,000 PBMC, NK or SPL effector cells were added in R1 assay media with or without a targeting test antibody and 25 or 50 μM of Compound 2. Vehicle is the solvent that Compound 2 is dissolved in. For assays employing SKBR3 human breast cancer or OE19 esophageal adenocarcinoma cell lines, 2.5 μg/mL of the HER2-targeting trastuzumab test antibody was used for ADCC assays. For OV-CD20 assays, 2.5 μg/mL of the CD20-targeting rituximab test antibody was used for ADCC assays. Cultures were incubated for 24 hours at 37° C. in 5% CO2 in triplicate. After incubation, culture supernatants were harvested for cytokine analysis and wells were washed with phosphate buffered saline and adhered target cell viability was quantified via Cell Titer-GLO (Promega) using a Varioskan plate reader. […] ADCC data was graphed as percent killing of antibody treated with Compound 2 or vehicle vs. cultures not treated with antibody. […] AICC results were graphed as percent killing by Compound 2 vs vehicle only treated cultures. […] Experiments represent a minimum of triplicate wells.

tumor target cells = experiment: ADCC and cytokine production by mouse splenocyte (SPL) effector cells; format: cell-based; conditions: 25 or 50 μM plus targeting antibody, 24 hours; vs antibody alone (vehicle)
Protocol: as §1

OV-CD20 tumor cells = experiment: AICC by human primary NK cells; format: cell-based; conditions: absence of antibody, vs vehicle
Protocol: as §1

CD16a FcR [3] = experiment: Cytokine and granzyme ELISA on supernatants of primary human effector cells; format: cell-based
Protocol: as §1

[4] = Tolerability and serum TNFα in athymic nude mice, i.v. dosing; format: in vivo
Protocol: To determine the ability of Compound 2 to activate immune-effector cells in vivo, we administered 7 mg/kg of Compound 2 or similar volumes of vehicle (ethanol) daily for 5 days (day 1-5) and isolated total serum on day 11 to measure for immune-effector cell activation markers. […] Experiments represent a minimum of triplicate wells.

SARS-COV-2 virus = experiment: Viability of human PBMCs exposed to SARS-COV-2 virus; format: cell-based; conditions: Severe acute respiratory syndrome coronavirus 2, PBMC, 72 h, read-out: PBMC viability after SARS-COV-2 exposure
From the text: NK cells have been previously reported to be capable of killing virally infected cells (Bjorkstrom N K, et al. Nat Reviews Immunol 22:112-123, 2022). In particular, previous studies have shown that the SARS-COV-2 virus can infect human PBMCs and this infection can be lethal to overall PBMC survival (Manunta MDI, et al. Scientific Reports 11:4904-4916, 2021). To test the ability of CD16a FcR activating small molecular weight agents described here to activate effector cells within PBMCs that in turn can kill virally infected PBMC sib cells and reduce viral load, Compound 2 was tested against human PBMCs exposed to SARS-COV-2 virus. Briefly, IL2-activated PBMCs grown in RPMI media with 10% heat inactivated FBS (R10) were plated at 100,000 cells/well in 96 well U-bottom microplates. Next, […] viral titers (previously determined by plaque forming units, PFU) were added to appropriate wells with or without 25 μM of Compound 2. Cultures were incubated for 72 hours at 37° C. in 5% CO2. Plates were centrifuged and supernatants collected for future cytokine and viral titer analysis. Cells were resuspended in RPMI plus 10% FBS, transferred to 96-well black microplates and tested for viability using Cell Titer-Glo (Promega) and read for viability on a 96-well microplate reader. […] Experiments represent a minimum of triplicate wells.

[5] = Metabolic stability in mouse liver microsomes; format: in vitro ADME; conditions: mouse, microsomes
Protocol: (§2) We next tested Compounds 2, 26, 27 and 33 for metabolic stability using human and mouse microsomes. For each test compound, samples were diluted a final concentration of 2 μg/mL in 25 mM potassium phosphate buffer with liver microsomes of each species at a final concentration of 0.5 mg/mL. The enzyme reaction was initiated by the addition of NADPH reagent at a final concentration of 1 mM. For negative control samples, NADPH reagent was not added. Samples were incubated at 37° C. on a 50-RPM orbital shaker, and an aliquot was removed at pre-determined timepoints at 0, 5, 10, 15, 30, and 60 minutes. Samples were then precipitated with three volume of acetonitrile containing propranolol as an internal standard, and centrifuged for 10 min at 2000 g then analyzed by LC/MS/MS. Note that compounds undergo only Phase I metabolism in liver microsomes in the presence of NADPH cofactors. Data interpretation of results are based on percent parent compound remaining relative to 0-minute incubation samples, from which the elimination half-life is calculated based on the natural log of % compound remaining vs. time plot. The following parameters were calculated to estimate the compound's in vitro metabolic stability: Cmp=concentration of microsomal proteins (mg/mL); t1/2=the half-life (min), where t1/2 is equal to 0.693/slope; CLint=the intrinsic hepatic clearance (μL/min/mg), where CLint is equal to 0.693/(t1/2×Cmp).

[6] = Metabolic stability in human liver microsomes; format: in vitro ADME; conditions: human, microsomes
Protocol: as §2

T1 sequence (P08637 17-254): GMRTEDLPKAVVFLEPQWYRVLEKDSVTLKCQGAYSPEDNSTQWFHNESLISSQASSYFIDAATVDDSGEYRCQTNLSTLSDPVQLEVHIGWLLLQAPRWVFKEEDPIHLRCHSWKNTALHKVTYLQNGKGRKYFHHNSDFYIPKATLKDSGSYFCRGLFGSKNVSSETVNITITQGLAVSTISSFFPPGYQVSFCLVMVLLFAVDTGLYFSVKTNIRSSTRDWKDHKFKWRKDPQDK
T1 sequence (P20963 22-164 partner): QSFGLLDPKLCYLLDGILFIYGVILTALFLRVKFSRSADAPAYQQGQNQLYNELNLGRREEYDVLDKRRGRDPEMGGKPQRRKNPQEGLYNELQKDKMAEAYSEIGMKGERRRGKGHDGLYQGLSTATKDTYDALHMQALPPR

In the case of CC(C)=CCC[C@@H](C)[C@H]1CC[C@@]2(C)C3CC[C@H]4C(C)(C)[C@@H](O)CC[C@@]45C[C@@]35CC[C@]12C (some centres unmarked) [Compound 2], the “JKT-CD16a activation (luciferase RLU) in the presence of IgG” value (CD16a-158F FcR; OV-CD20 target cells plus 2.5 μg/mL rituximab, 12-18 hours, vs vehicle or no compound) is reported as “significant enhancement”, the “JKT-CD16a-158F FcR activation (luciferase RLU) in the absence of IgG antibody” value (CD16a-158F FcR; OV-CD20 target cells without antibody, lower levels than with IgG) is reported as “stimulated” and the “IFNγ and TNFα production by JKT-CD16a-158F cells” value (CD16a FcR [1]) is reported as “both cytokines were produced”. For the same compound, the “IFNγ and TNFα production by parental Jurkat cells (CD16a-null)” value (CD16a FcR [1]) was “little to no cytokine production”, the “human (PBMC and NK cells) effector cell killing of target cells through ADCC” value [2] was “enhance” and the “mouse (SPL cells) effector cell killing of target cells through ADCC” value (tumor target cells) was “enhance”. The “NK cell killing of OV-CD20 tumor cells via AICC” value (OV-CD20 tumor cells) was “enabled NK cell killing of OV-CD20 tumor cells”, the “TNFα, IFNγ, GM-CSF and granzyme B production by NK cells” value (CD16a FcR [3]; absence of antibody, ELISA of supernatants) was “produced and secreted” and the “time of exposure to activation and cytokine production” value (CD16a FcR [3]; time course analysis) was ≤ 30 min. For the same compound, the “serum TNFα” value ([4]; 7 mg/kg i.v. daily day 1-5, serum on day 11, ELISA, vehicle cohort 11 μg/mL) was 298 µg/mL, the “tolerability by lack of body weight loss” value ([4]; 7 mg/kg i.v. daily for 5 days, athymic nude mice) was “well tolerated” and the “tolerable dose, daily i.v. dosing” value ([4]; athymic nude mice) was “at least 7 mg/kg”. It also gave a viability at 25 µM (SARS-COV-2 virus) of 100%, a half-life at 2 μg/mL [5] of 1.88 h and a microsomal CLint at 2 μg/mL [5] of 12.3 µL/min/mg. The half-life at 2 μg/mL [6] was 1.18 h and the microsomal CLint at 2 μg/mL [6] was 19.7 µL/min/mg.

— US20260256811A1, “Humoral Immune Activators for the Treatment of Humoral Immunosuppressed Pathologies, Cancer and Infectious Disease and Humoral Immune Suppressors for the Treatment of Inflammatory Diseases” (Navrogen, Inc., priority 2022, published 2026)
